Results reported in patent US10071112B2, “Vitamin E-nucleoside prodrugs” (EPIGENETICS PHARMA LLC, priority 2014, dated 2018).
Structures can show the parent of a compound that is named as a salt. Where two headings read alike, the source gives them in different places. Blank lines part the entries; values can stand above or below the compound they belong to.

Assays:
[1] = blank human plasma matrix, room temperature, at least 4 hours; cited from earlier work
MDA-MB-231 = test: In vitro cytotoxicity / growth inhibition, SRB assay, 72 hr, breast cancer cells; type: cell-based; conditions: for IC50: Table 2; for GI50: 72 hr
Method: (§1) In general, growth inhibitory effects of gemcitabine and prodrugs were evaluated in breast (MDA), lung (H460) and colon (H116) cancer cell lines by seeding the cell lines in 96-wells plates and exposing the cells to various drug concentrations for 72 hr. Standard sulforhodamine B (SRB) assay was then performed.

HCT-116 = test: In vitro cytotoxicity / growth inhibition, SRB assay, 72 hr, colon cancer cells; type: cell-based; conditions: for IC50: Table 2, HCT-116; for GI50: 72 hr
Method: as §1

NCI-H460 = test: In vitro cytotoxicity / growth inhibition, SRB assay, 72 hr, non-small cell lung cancer cells; type: cell-based; conditions: for IC50: Table 2; for GI50: 72 hr
Method: as §1

CEM WT = test: Activity in wild type leukemic CEM cells; type: cell-based; conditions: for IC50: Homo sapiens, CCRF-CEM, CEM WT (dCK wild type) cells
Method: (§2) To further confirm that tocopherol/tocotrienol-modified drugs are imported as intact molecules and then dissociate intracellularly into monophosphorylated nucleoside and carrier, i.e., tocopherol/tocotrienol, Compound 2 was tested for activity against gemcitabine in wild type (WT) leukemic CEM cells and CEM cells without deoxycytidine kinase (dCK). In the absence of dCK, gemcitabine is not phosphorylated to gemcitabine monophosphate a precursor to the therapeutically active di- and triphosphates.

[2] = Aqueous solubility determination; type: physicochemical
Excerpt: In addition, chromatographic purity (%) was defined as the peak area of the principal peak relative to the total integrated peak area in the HPLC chromatogram of the calibration standard. A chromatogram of the calibration standard of each test compound, along with a UV/VIS spectrum with labeled absorbance maxima, was generated.

CEM dCK(—) = test: Activity in CEM cells without deoxycytidine kinase; type: cell-based; conditions: for increase of IC50 from dCK WT cells to dCK (−) cells: CEM dCK(−) vs CEM WT; for IC50: Homo sapiens, CCRF-CEM, CEM dCK(—) cells
Method: as §2

[3] = Intrinsic clearance / metabolic stability in liver microsomes; type: in vitro ADME; conditions: human liver microsomes
Method: Metabolic stability, expressed as percent of the parent compound remaining, was calculated by comparing the peak area of the compound at the time point relative to that at time-0. The half-life (T1/2) was estimated from the slope of the initial linear range of the logarithmic curve of compound remaining (%) vs. time, assuming the first-order kinetics. The apparent intrinsic clearance (CLint, in μL/min/pmol, μL/min/mg or μL/min/Mcell) was calculated according to the following formula: CLint=[…](mg protein/μL or million cells/μL or pmol CYP isozyme/μL)

pancreatic cancer = conditions: clinical trials, patients with pancreatic cancer; cited from earlier work
[4] = Homo sapiens, MDA-MB-231, absence of dipyridamole (control), read-out: GI50 SRB, MDA Breast
[5] = Homo sapiens, MDA-MB-231, presence of 1 μM dipyridamole, read-out: GI50 SRB, MDA Breast, dipyridamole
[6] = Homo sapiens, absence of dipyridamole (control), read-out: GI50 SRB, H116 Colon
[7] = Homo sapiens, presence of 1 μM dipyridamole, read-out: GI50 SRB, H116 Colon, dipyridamole
[8] = Homo sapiens, NCI-H460, absence of dipyridamole (control), read-out: GI50 SRB, H460 Lung
[9] = Homo sapiens, NCI-H460, presence of 1 μM dipyridamole, read-out: GI50 SRB, H460 Lung, dipyridamole

Compound: CCCCCCCC/C=C/CCCCCCCC(=O)OC[C@H]1O[C@@H](n2cnc(N)nc2=O)[C@H](O)[C@@H]1O [5-azacytidine elaidic acid ester]
- percent of the initial amount remaining [1]: 94%

Compound: Cc1c(C)c2c(c(C)c1OP(=O)(O)OC[C@H]1O[C@@H](n3ccc(N)nc3=O)C(F)(F)[C@@H]1O)CC[C@@](C)(CCC[C@H](C)CCC[C@H](C)CCCC(C)C)O2 [Compound 1, D-α-tocopheryl phosphate-5′-gemcitabine, triethylammonium salt]
- IC50 (MDA-MB-231; Homo sapiens, MDA-MB-231): 22.7 µM
- IC50 (HCT-116; Homo sapiens): 26.1 µM
- IC50 (NCI-H460; Homo sapiens, NCI-H460): 23.8 µM

Compound: Cc1cc(OP(=O)(O)OC[C@H]2O[C@@H](n3ccc(N)nc3=O)C(F)(F)C2O)cc2c1O[C@](C)(CCC[C@H](C)CCC[C@H](C)CCCC(C)C)CC2 (stereo partly drawn) [Compound 2, D-δ-tocopheryl phosphate-5′-gemcitabine, triethylammonium salt]
- IC50 (CEM WT): 0.59 µM
- GI50 (MDA-MB-231; [4]): 17.2 µM
- GI50 (MDA-MB-231; [5]): 23.3 µM
- IC50 (MDA-MB-231; Homo sapiens, MDA-MB-231): 5.08 µM
- solubility ([2]; PBS buffer, aqueous buffer, PBS (pH 7.4), read-out: aqueous solubility in PBS): > 10000 µg/mL
- solubility ([2]; simulated intestinal fluid, fassgf or other biorelevant, read-out: aqueous solubility in simulated intestinal fluid): > 200 µM
- IC50 (HCT-116; Homo sapiens): 3.67 µM
- GI50 (HCT-116; [6]): 3.07 µM
- GI50 (HCT-116; [7]): 6.74 µM
- increase of IC50 from dCK WT cells to dCK (−) cells (CEM dCK(—)): 32.5 fold
- IC50 (CEM dCK(—)): 19.2 µM
- fold by which IC50 of Compound 2 was lower than gemcitabine (CEM dCK(—); dCK (−) cells): 6.5 fold
- intrinsic clearance half-life [3]: greater than 60 minutes
- GI50 (NCI-H460; [8]): 2.14 µM
- GI50 (NCI-H460; [9]): 1.47 µM
- IC50 (NCI-H460; Homo sapiens, NCI-H460): 1.69 µM

Compound: CC(C)=CCC/C(C)=C/CC/C(C)=C/CCC1(C)CCc2cc(OP(=O)(O)OC[C@H]3O[C@@H](n4ccc(N)nc4=O)C(F)(F)[C@@H]3O)c(C)c(C)c2O1 (stereo partly drawn) [Compound 3, D-γ-tocotrienyl phosphate-5′-gemcitabine, triethylammonium salt]
- IC50 (MDA-MB-231; MDA-MB-231): 4.9 µM
- GI50 (MDA-MB-231; absence of dipyridamole (control), read-out: GI50 SRB, MDA Breast): 30.3 µM
- GI50 (MDA-MB-231; presence of 1 μM dipyridamole, read-out: GI50 SRB, MDA Breast, dipyridamole): 27.8 µM
- IC50 (HCT-116): 4.01 µM
- GI50 (HCT-116; absence of dipyridamole (control), read-out: GI50 SRB, H116 Colon): 5.55 µM
- GI50 (HCT-116; presence of 1 μM dipyridamole, read-out: GI50 SRB, H116 Colon, dipyridamole): 12.6 µM
- IC50 (NCI-H460; NCI-H460): 4.75 µM
- GI50 (NCI-H460; absence of dipyridamole (control), read-out: GI50 SRB, H460 Lung): 7.16 µM
- GI50 (NCI-H460; presence of 1 μM dipyridamole, read-out: GI50 SRB, H460 Lung, dipyridamole): 16 µM

- IC50 (CEM WT): 0.002 µM
- fold by which IC50 of gemcitabine was lower than Compound 2 (CEM WT; dCK WT cells): 295 fold
- increase of IC50 from dCK WT cells to dCK (−) cells (CEM dCK(—)): 62,250 fold
- IC50 (CEM dCK(—)): 124 µM
Compound: Nc1ccn([C@@H]2O[C@H](CO)[C@@H](O)C2(F)F)c(=O)n1 [Gemcitabine, reference compound]
- GI50 (MDA-MB-231; [4]): 3.08 µM
- GI50 (MDA-MB-231; [5]): 56.8 µM
- IC50 (MDA-MB-231; Homo sapiens, MDA-MB-231): 0.11 µM
- IC50 (HCT-116; Homo sapiens): 0.01 µM
- GI50 (HCT-116; [6]): 0.03 µM
- GI50 (HCT-116; [7]): 2.39 µM
- GI50 (NCI-H460; [8]): 0.02 µM
- GI50 (NCI-H460; [9]): 0.82 µM
- IC50 (NCI-H460; Homo sapiens, NCI-H460): 0.02 µM

Compound: CCCCCCCC/C=C/CCCCCCCC(=O)OC[C@H]1O[C@@H](n2ccc(N)nc2=O)C(F)(F)[C@@H]1O [elaidic acid prodrug]
- survival versus gemcitabine (pancreatic cancer): did not show any difference in survival

Compound: CC(C)=CCC/C(C)=C/CC/C(C)=C/CCC1(C)CCc2cc(OP(=O)(O)O)c(C)c(C)c2O1 (stereo not shown) [γ-tocotrienyl phosphate, reference compound]
- IC50 (MDA-MB-231; MDA-MB-231): 26.4 µM
- IC50 (HCT-116): 55.7 µM
- IC50 (NCI-H460; NCI-H460): 69.1 µM

Compound: α-tocopheryl phosphate [reference compound]
- IC50 (MDA-MB-231; MDA-MB-231): 23.4 µM
- IC50 (HCT-116): 46.9 µM
- IC50 (NCI-H460; NCI-H460): 52.2 µM

Compound: δ-tocopheryl phosphate [reference compound]
- IC50 (MDA-MB-231; MDA-MB-231): 29.6 µM
- IC50 (HCT-116): 70.6 µM
- IC50 (NCI-H460; NCI-H460): 69.7 µM
